Reference: the supplement of paper PMC11699113

System: ED cells (E. derm NBM-6, ATCC CCL-57)
Experiment: cell viability (ATP, CellTiter-Glo) relative to untreated control (fraction of control); higher = less cytotoxic

Nc1nc(NC2CC2)c2ncn([C@H]3C=C[C@@H](CO)C3)c2n1 [abacavir]
cell viability
Settings	0.5 µM	2 µM	5 µM	10 µM	25 µM	50 µM	80 µM	100 µM	200 µM	300 µM
incubation time: 1h	1	0.999	1	1	1	0.999	0.994	0.99	0.983	0.982
incubation time: 24h	1.01	1.02	1.01	1.01	0.99	0.944	0.924	0.91	0.846	0.788
incubation time: 72h	1.02	1.03	0.999	0.978	0.925	0.846	0.785	0.745	0.604	0.506
incubation time: 144h	1.04	1.02	0.992	0.949	0.884	0.816	0.754	0.735	0.596	0.458

COC(=O)N[C@H](C(=O)N[C@@H](Cc1ccccc1)[C@@H](O)CN(Cc1ccc(-c2ccccn2)cc1)NC(=O)[C@@H](NC(=O)OC)C(C)(C)C)C(C)(C)C [atazanavir]
cell viability
Settings	0.125 µM	0.25 µM	0.5 µM	2 µM	10 µM	20 µM	50 µM	80 µM	100 µM	124 µM
incubation time: 1h	1.05	1.05	1.05	1.06	1.06	1.04	1.03	1.01	1.02	1.02
incubation time: 24h	1.07	1.08	1.07	1.07	1.06	1.06	1.03	0.979	0.941	0.798
incubation time: 72h	1.09	1.12	1.1	1.1	1.13	1.12	1.09	0.802	0.416	0.0698
incubation time: 144h	1.02	1.05	1.03	1.03	1.07	1.07	1.04	0.554	0.0524	0.00492

O=C(NCc1c(F)cc(F)cc1F)c1cn2c(c(O)c1=O)C(=O)N1[C@H]3CC[C@H](C3)O[C@@H]1C2 [bictegravir]
cell viability
Settings	0.06 µM	0.125 µM	0.325 µM	2 µM	5 µM	10 µM	20 µM	30 µM	42 µM	concentration (µM): C04 (printed 10, out of sequence, likely typo)
incubation time: 1h	1	0.997	0.994	0.995	0.987	0.99	0.993	0.994	0.98	1
incubation time: 24h	1.01	0.998	1.01	1.01	1.02	1.01	1.03	1.01	1	1.01
incubation time: 72h	1.07	1.09	1.1	1.1	1.11	1.11	1.08	1.05	0.997	1.09
incubation time: 144h	1.07	1.06	1.07	1.06	1.06	1.05	1.01	0.972	0.952	1.07

O=C1Nc2ccc(Cl)cc2[C@@](C#CC2CC2)(C(F)(F)F)O1 [efavirenz]
cell viability
Settings	0.5 µM	2 µM	5 µM	10 µM	20 µM	40 µM	50 µM	75 µM	100 µM	150 µM
incubation time: 1h	1.05	1.04	1.02	0.985	0.902	0.523	0.35	0.164	0.0891	0.0482
incubation time: 24h	0.985	0.989	1.01	0.999	0.979	0.618	0.194	0.00645	0.0077	0.00431
incubation time: 72h	1.04	1.04	1.04	1.03	1.01	0.907	0.659	0.0635	0.0176	0.00453
incubation time: 144h	1.02	1.02	1.02	1	0.969	0.862	0.574	0.128	0.113	0.00579

Nc1nc(=O)n([C@@H]2CS[C@H](CO)O2)cc1F [emtricitabine]
cell viability
Settings	0.5 µM	2 µM	5 µM	10 µM	25 µM	50 µM	80 µM	100 µM	200 µM	300 µM
incubation time: 1h	0.999	0.996	1.01	1.01	0.998	1	1.01	1.01	0.998	1.01
incubation time: 24h	0.998	1.02	1.02	1.04	1.04	1.03	1.03	1.03	1.01	1
incubation time: 72h	1.03	1.05	1.05	1.05	1.05	1.04	1.04	1.03	0.999	0.999
incubation time: 144h	1.03	1.05	1.06	1.06	1.06	1.05	1.04	1.05	1.05	1.02

CC[C@H](C)[C@H](NC(=O)[C@H](CC(C)C)NC(=O)[C@H](CO)NC(=O)[C@H](Cc1cnc[nH]1)NC(=O)[C@@H](NC(=O)[C@H](CC(C)C)NC(=O)[C@H](CO)NC(=O)[C@@H](NC(=O)[C@H](Cc1ccc(O)cc1)NC(C)=O)[C@@H](C)O)[C@@H](C)CC)C(=O)N[C@@H](CCC(=O)O)C(=O)N[C@@H](CCC(=O)O)C(=O)N[C@@H](CO)C(=O)N[C@@H](CCC(N)=O)C(=O)N[C@@H](CC(N)=O)C(=O)N[C@@H](CCC(N)=O)C(=O)N[C@@H](CCC(N)=O)C(=O)N[C@@H](CCC(=O)O)C(=O)N[C@@H](CCCCN)C(=O)N[C@@H](CC(N)=O)C(=O)N[C@@H](CCC(=O)O)C(=O)N[C@@H](CCC(N)=O)C(=O)N[C@@H](CCC(=O)O)C(=O)N[C@@H](CC(C)C)C(=O)N[C@@H](CC(C)C)C(=O)N[C@@H](CCC(=O)O)C(=O)N[C@@H](CC(C)C)C(=O)N[C@@H](CC(=O)O)C(=O)N[C@@H](CCCCN)C(=O)N[C@@H](Cc1c[nH]c2ccccc12)C(=O)N[C@@H](C)C(=O)N[C@@H](CO)C(=O)N[C@@H](CC(C)C)C(=O)N[C@@H](Cc1c[nH]c2ccccc12)C(=O)N[C@@H](CC(N)=O)C(=O)N[C@@H](Cc1c[nH]c2ccccc12)C(=O)N[C@@H](Cc1ccccc1)C(N)=O [enfuvirtide]
cell viability
Settings	0.03 µM	0.06 µM	0.125 µM	0.25 µM	0.5 µM	1 µM	2 µM	5 µM	8 µM	11 µM
incubation time: 1h	1.05	1.06	1.06	1.07	1.05	1.05	1.05	1.05	1.06	1.06
incubation time: 24h	1.06	1.07	1.06	1.07	1.06	1.06	1.06	1.07	1.05	1.04
incubation time: 72h	1.05	1.06	1.06	1.08	1.06	1.06	1.07	1.06	1.05	1.06
incubation time: 144h	1.02	1.03	1.03	1.04	1.03	1.03	1.04	1.04	1.06	1.04

Cc1cc(C#N)cc(C)c1Oc1nc(Nc2ccc(C#N)cc2)nc(N)c1Br [etravirine]
cell viability
Settings	0.5 µM	2 µM	5 µM	10 µM	25 µM	50 µM	80 µM	100 µM	200 µM	300 µM
incubation time: 1h	1.03	1.02	0.959	0.693	0.424	0.372	0.346	0.329	0.328	0.322
incubation time: 24h	1.06	1.02	1.04	0.986	0.866	0.817	0.679	0.674	0.413	0.249
incubation time: 72h	1.01	0.978	0.953	0.894	0.829	0.796	0.75	0.723	0.541	0.412
incubation time: 144h	1	0.994	0.97	0.927	0.871	0.835	0.784	0.775	0.626	0.525

CC(C)CN(C[C@@H](OP(=O)(O)O)[C@H](Cc1ccccc1)NC(=O)O[C@H]1CCOC1)S(=O)(=O)c1ccc(N)cc1 [fosamprenavir]
cell viability
Settings	0.03 µM	0.06 µM	0.125 µM	0.25 µM	0.5 µM	2 µM	5 µM	10 µM	20 µM	32 µM
incubation time: 1h	1.1	1.13	1.11	1.11	1.11	1.1	1.1	1.11	1.1	1.08
incubation time: 24h	1.01	1.01	1.01	1	0.994	1	0.979	0.978	0.978	0.949
incubation time: 72h	1.08	1.08	1.08	1.08	1.08	1.08	1.04	1.03	1	0.953
incubation time: 144h	1.02	1.04	1.04	1.06	1.05	1.05	1.04	1.02	0.993	0.957

Nc1ccn([C@@H]2CS[C@H](CO)O2)c(=O)n1 [lamivudine]
cell viability
Settings	0.5 µM	2 µM	5 µM	10 µM	20 µM	40 µM	50 µM	75 µM	100 µM	150 µM
incubation time: 1h	1.04	1.02	1.03	1.03	1.02	1.01	1.01	1.02	0.997	0.979
incubation time: 24h	1.02	1.03	1.03	1.03	1.03	1.03	1.02	1.03	1.03	1.04
incubation time: 72h	1.03	1.04	1.05	1.04	1.06	1.05	1.04	1.04	1.04	1.02
incubation time: 144h	1.03	1.03	1.04	1.04	1.04	1.04	1.03	1.04	1.03	1
